In US10881656B2, “HIF inhibitors and use thereof” (The General Hospital Corporation, priority 2008, dated 2021):

Columns and labels:
[1] = tested on: HIF-2a mRNA; assay: qRT-PCR for HIF-2a mRNA expression; format: cell-based, human; conditions: 786-O derived cells, qRT-PCR normalized to B2M
Description: ID NO: 1) and [NT] […] ID NO: 3) and [NT] ID NO: 4) for […] ID NO: 5) and [NT] ID NO: 6) for Transferrin Receptor 1 ([…] ID NO: 7) and [NT] ID NO: 8) for […] ID NO: 9) and [NT] ID NO: 10) for […] ID NO. 11) and [NT] ID NO: 12) for EGLN3. […] ID NO: 13) and [NT] ID NO: 14). Quantitative RT-PCR was performed on total RNA harvested from 7H4 cells treated with medium only, DMSO or compound. […] To test whether the compounds alter HIF-2a stability, the inventors assessed protein half-life following the addition of cycloheximide in compound versus DMSO-only treated cells (see FIG. 10).

[2] = tested on: iron (Fe-(EDHB)3 complex); assay: In vitro iron competition assay; conditions: 0-200 micromolars, absorbance at 500 nm
Description: This assay was performed similarly to that described previously (Wang et al., 2002). Briefly, displacement of iron from ethyl-3,4-dihydroxybenzoate (EDHB) complex was measured as a decrease in absorbance at 500 nm. Ferric iron, prepared as a 5 mM stock solution of FeC13 in 100 mM sodium citrate, was diluted to 25 μM in the presence of 750 μM EDHB. 1 ml aliquots of this solution were then mixed with 0, 25, 50, 100 or 200 micromolars of compounds 40, 41, 76, and 77 as well as EDTA and DFO for controls. […] The self absorbance of compound 41 in a matched solution lacking Fe-(EDHB)3 was subtracted from the A500 value obtained in the presence of the Fe-(EDHB)3 complex.
The inventors next directly tested whether the compounds bind iron by performing a competition assay in which the displacement of iron from ethyl-3,4-dihydroxybenzoate (EDHB), a weakly chelating ester, was measured as a decrease in absorbance at 500 nm. […] In addition, the inventors utilized the Connectivity Map to look for similarities between the induced gene expression signatures of low and high dose DFO and compound treated cells (Lamb et al., 2006). Using this bioinformatic approach, the inventors discovered no significant similarity between the gene expression profile of the compounds and low (chelating) DFO dose, while there was a negative correlation between compound effect and high (HIF stabilizing) DFO dose (see FIG. 13).

[3] = biological target: T1, IRP1 binding to HIF-2a IRE (Homo sapiens, UniProt P21399); assay: Electrophoretic mobility shift assay, HIF-2a IRE probe; conditions: for binding of IRP1 to HIF-2a IRE probe: lysates of treated 786-O cells, EMSA
T1 sequence (P21399 1-889): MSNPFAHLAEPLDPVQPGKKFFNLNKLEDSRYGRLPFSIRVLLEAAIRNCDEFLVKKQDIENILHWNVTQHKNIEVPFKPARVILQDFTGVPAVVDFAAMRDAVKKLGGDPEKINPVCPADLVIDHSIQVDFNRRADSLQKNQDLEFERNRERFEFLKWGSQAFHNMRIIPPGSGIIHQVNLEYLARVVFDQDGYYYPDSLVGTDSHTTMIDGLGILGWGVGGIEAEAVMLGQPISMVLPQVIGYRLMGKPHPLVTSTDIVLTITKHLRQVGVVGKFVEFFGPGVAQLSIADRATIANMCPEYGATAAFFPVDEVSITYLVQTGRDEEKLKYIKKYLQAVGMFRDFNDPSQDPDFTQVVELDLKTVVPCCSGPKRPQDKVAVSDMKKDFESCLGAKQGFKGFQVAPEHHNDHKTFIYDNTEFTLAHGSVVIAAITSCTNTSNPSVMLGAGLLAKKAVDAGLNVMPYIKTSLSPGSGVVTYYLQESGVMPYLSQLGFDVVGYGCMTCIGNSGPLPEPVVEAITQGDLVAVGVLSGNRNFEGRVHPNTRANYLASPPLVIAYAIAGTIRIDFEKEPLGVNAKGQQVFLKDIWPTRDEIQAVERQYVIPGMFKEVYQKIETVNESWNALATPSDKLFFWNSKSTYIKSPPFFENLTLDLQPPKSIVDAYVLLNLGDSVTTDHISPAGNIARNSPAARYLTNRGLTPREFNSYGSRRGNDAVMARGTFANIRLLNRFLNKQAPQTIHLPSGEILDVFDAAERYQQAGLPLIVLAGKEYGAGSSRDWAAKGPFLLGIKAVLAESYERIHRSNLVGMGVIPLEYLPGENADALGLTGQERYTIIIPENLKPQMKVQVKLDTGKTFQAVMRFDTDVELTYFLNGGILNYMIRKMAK
Description: EMSAs were performed as described previously (Fillebeen et al., 2003). Briefly, 50 μg lysate from 786-O cells treated with medium only, DMSO, or compounds were incubated with 25,000 cpm wild-type or mutant radiolabeled HIF-2a IRE probe for 20 minutes at room temperature before loading onto non-denaturing acrylamide gels. Supershifts were performed identically, save that 0.2 μg control, IRP1 or IRP2 antibodies were also added. Total protein content was estimated by Bradford Assay (BioRad, 500-0006), and even loading for all experiments was confirmed by Western blot for B-Actin.
The inventors next tested the effect of hypoxia on the binding of IRP1 to the HIF-2a wild-type IRE. […] This is due to decreased mRNA binding, as western blots confirm that neither compound application nor hypoxia affects IRP1 protein expression. The involvement of IRP1 was further confirmed with super-shifting experiments with IRP1 antibody (FIG. 7C). No supershifted bands were observed using IRP2 antibody.
Inventors discovered that compound 76 increased the residual amount of IRP1 bound to the HIF-2a IRE in hypoxia, although not to the same extent as that observed in normoxic cells. […] Lastly, to further investigate the involvement of IRP2 in HIF-2a IRE, the inventors compared side by side IRP2 binding to HIF-2a and Ferritin-L IRE in 786-O cells, in conditions of normoxia or hypoxia and after treatment with compound 76 or DFO (FIG. 7E). While IRP2 binding was clearly detected on Ferritin IRE, the inventors were not able to detect measurable IRP2 binding on HIF-2a IRE.
To examine this latter possibility the inventors performed an electophoretic mobility shift assay (EMSA) using a radiolabeled wild type or mutant IRE probe to determine if IRP1 binding is increased (FIG. 18A). […] This shifted band can be supershifted with IRP1 but not IRP2 antibodies (data not shown). To further examine the ability of PGJ2 to enhance IRP1 activity under conditions of normoxia and hypoxia the inventors tested its effect at various concentrations of ambient oxygen, corresponding to physiologic or extreme conditions of tissue oxygenation.

Row | SMILES | HIF-2a mRNA expression [1] | displacement of iron from EDHB complex (iron chelation) [2] | binding of IRP1 to HIF-2a IRE probe [3] | binding of IRP1 to wild-type HIF-2a probe in hypoxia ([3]; 786-O cells, 24 hours hypoxia)
1 | C/C(=C\c1ccccc1)C(=O)CCN(C)C.Cl [Compound 40, 5-(dimethylamino)-2-methyl-1-phenyl-1-penten-3-one hydrochloride] | do not effect HIF-2a mRNA expression | are not iron chelators | enhance binding of IRP1 to the HIF-2a IRE | –
2 | COc1ccc(O)c(/C=C/C(=O)c2c(O)cc(C)oc2=O)c1 [Compound 41, 4-hydroxy-3-[3-(2-hydroxy-5-meoxyphenyl)acryloyl]-6-methyl-2H-pyran-2-one] | do not effect HIF-2a mRNA expression | are not iron chelators | enhance binding of IRP1 to the HIF-2a IRE | –
3 | COC(=O)c1sccc1N/N=C(/C#N)S(C)(=O)=O [Compound 76, methyl 3-{2-[cyano(methylsulfonyl)methylene] hydrazino}thiophene-2-carboxylate] | do not effect HIF-2a mRNA expression | are not iron chelators | enhance binding of IRP1 to the HIF-2a IRE | enhances binding of IRP1 to wild-type HIF-2a probe in hypoxia
4 | CC1(C)CC(=O)C=C(Sc2ccc(C#N)cc2[N+](=O)[O-])S1 [Compound 77, 4-[(2,2-dimethyl-4-oxo-3,4-dihydro-2H-thiin-6-yl)thio]-3-nitrobenzonitrile] | do not effect HIF-2a mRNA expression | are not iron chelators | enhance binding of IRP1 to the HIF-2a IRE | –
5 | CCCCC/C=C/C=C1/C(=O)C=C[C@@H]1C/C=C\CCCC(=O)O [PGJ2, 15-deoxy-Δ^12,14-prostaglandin J2] | no concomitant decrease in HIF2a mRNA expression | not an iron chelator | increased the specific IRE binding activity of cell lysates under conditions of both normoxia and hypoxia | –
